# From PubChem BioAssay AID256 (DTP/NCI, 2004)
# Values joined by “and” are separate entries in the source; they are usually repeats but may differ in a detail not shown here. Identical values can stand only once. Inconclusive results and toxic doses are left out.
# System: CD2F1 mice, L1210 leukemia ip, survival T/C
# Experiment: NCI In Vivo Anticancer Drug Screen. Data for tumor model L1210 Leukemia (intraperitoneal) in CD2F1 (CDF1) mice
# Conditions: higher = longer survival
# Procedure, shortened: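 Read-out first: treated-group measurement over vehicle-control measurement, expressed as a ratio. Animals bore a transplanted tumor line and were dosed with compound or vehicle.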
structure (smiles),measurement,setting,value
N[C@@H](Cc1ccc(N(CCCl)CCCl)cc1)C(=O)O,T/C,"endpoint: mean survival time, dose: 0.25 mg/kg/injection, schedule: Q01DX009 (ip), vehicle: Klucel (hydroxypropylcellulose) (HPC)",106 % of control and 108 % of control
same,T/C,"endpoint: mean survival time, dose: 0.25 mg/kg/injection, schedule: Q01DX009 (ip), vehicle: saline",106 % of control
same,T/C,"endpoint: mean survival time, dose: 0.25 mg/kg/injection, schedule: Q04DX003 (ip), vehicle: saline",113 % of control
same,T/C,"endpoint: mean survival time, dose: 0.5 mg/kg/injection, schedule: Q01DX009 (ip), vehicle: water",113 % of control and 112 % of control
same,T/C,"endpoint: mean survival time, dose: 0.5 mg/kg/injection, schedule: Q04DX003 (ip), vehicle: saline",118 % of control
same,T/C,"endpoint: mean survival time, dose: 0.75 mg/kg/injection, schedule: Q01DX009 (ip), vehicle: Klucel (hydroxypropylcellulose) (HPC)",115 % of control
same,T/C,"endpoint: mean survival time, dose: 1.0 mg/kg/injection, schedule: Q01DX009 (ip), vehicle: water",115 % of control and 123 % of control
same,T/C,"endpoint: mean survival time, dose: 1.0 mg/kg/injection, schedule: Q## X010 (oral), vehicle: saline",118 % of control
same,T/C,"endpoint: mean survival time, dose: 2.0 mg/kg/injection, schedule: Q01DX001 (ip), vehicle: Klucel (hydroxypropylcellulose) (HPC)",118 % of control
same,T/C,"endpoint: mean survival time, dose: 2.0 mg/kg/injection, schedule: Q01DX001 (ip), vehicle: other",108 % of control
same,T/C,"endpoint: mean survival time, dose: 2.0 mg/kg/injection, schedule: Q01DX001 (ip), vehicle: saline with Tween-80",122 % of control
same,T/C,"endpoint: mean survival time, dose: 2.0 mg/kg/injection, schedule: Q01DX005 (oral), vehicle: saline",121 % of control
same,T/C,"endpoint: mean survival time, dose: 2.0 mg/kg/injection, schedule: Q01DX007 (ip), vehicle: saline",166 % of control
same,T/C,"endpoint: mean survival time, dose: 2.0 mg/kg/injection, schedule: Q01DX009 (ip), vehicle: water",153 % of control
same,T/C,"endpoint: mean survival time, dose: 2.0 mg/kg/injection, schedule: Q## X016 (oral), vehicle: saline",103 % of control
same,T/C,"endpoint: mean survival time, dose: 2.5 mg/kg/injection, schedule: Q01DX009 (ip), vehicle: saline",166 % of control
same,T/C,"endpoint: mean survival time, dose: 2.5 mg/kg/injection, schedule: Q04DX003 (ip), vehicle: saline",153 % of control
same,T/C,"endpoint: mean survival time, dose: 3.0 mg/kg/injection, schedule: Q01DX009 (ip), vehicle: Klucel (hydroxypropylcellulose) (HPC)",164 % of control
same,T/C,"endpoint: mean survival time, dose: 4.0 mg/kg/injection, schedule: Q01DX001 (ip), vehicle: Klucel (hydroxypropylcellulose) (HPC)",119 % of control
same,T/C,"endpoint: mean survival time, dose: 4.0 mg/kg/injection, schedule: Q01DX001 (ip), vehicle: other",121 % of control
same,T/C,"endpoint: mean survival time, dose: 4.0 mg/kg/injection, schedule: Q01DX007 (ip), vehicle: saline",168 % of control
same,T/C,"endpoint: mean survival time, dose: 4.0 mg/kg/injection, schedule: Q01DX009 (ip), vehicle: water",155 % of control and 208 % of control
same,T/C,"endpoint: mean survival time, dose: 4.0 mg/kg/injection, schedule: Q03DX003 (ip), vehicle: saline",170 % of control
same,T/C,"endpoint: mean survival time, dose: 4.0 mg/kg/injection, schedule: Q## X010 (ip), vehicle: saline",160 % of control
same,T/C,"endpoint: mean survival time, dose: 4.0 mg/kg/injection, schedule: Q## X016 (oral), vehicle: saline",104 % of control
same,T/C,"endpoint: mean survival time, dose: 4.5 mg/kg/injection, schedule: Q04DX003 (ip), vehicle: saline",152 % of control
same,T/C,"endpoint: mean survival time, dose: 5.0 mg/kg/injection, schedule: Q01DX009 (ip), vehicle: saline",198 % of control
same,T/C,"endpoint: mean survival time, dose: 6.0 mg/kg/injection, schedule: Q04DX003 (ip), vehicle: saline",158 % of control
same,T/C,"endpoint: mean survival time, dose: 7.5 mg/kg/injection, schedule: Q01DX001 (ip), vehicle: saline",158 % of control
same,T/C,"endpoint: mean survival time, dose: 7.5 mg/kg/injection, schedule: Q01DX009 (ip), vehicle: saline",198 % of control
same,T/C,"endpoint: mean survival time, dose: 7.5 mg/kg/injection, schedule: Q04DX003 (ip), vehicle: saline",198 % of control and 266 % of control
same,T/C,"endpoint: mean survival time, dose: 8.0 mg/kg/injection, schedule: Q01DX001 (ip), vehicle: DMSO",180 % of control
same,T/C,"endpoint: mean survival time, dose: 8.0 mg/kg/injection, schedule: Q01DX001 (ip), vehicle: Klucel (hydroxypropylcellulose) (HPC)",180 % of control
same,T/C,"endpoint: mean survival time, dose: 8.0 mg/kg/injection, schedule: Q01DX001 (ip), vehicle: saline with Tween-80",165 % of control
same,T/C,"endpoint: mean survival time, dose: 8.0 mg/kg/injection, schedule: Q01DX009 (ip), vehicle: water",120 % of control and 108 % of control
same,T/C,"endpoint: mean survival time, dose: 8.0 mg/kg/injection, schedule: Q03DX003 (ip), vehicle: saline",211 % of control
same,T/C,"endpoint: mean survival time, dose: 8.0 mg/kg/injection, schedule: Q## X010 (oral), vehicle: saline",96 % of control
same,T/C,"endpoint: mean survival time, dose: 9.0 mg/kg/injection, schedule: Q04DX003 (ip), vehicle: saline",217 % of control
same,T/C,"endpoint: mean survival time, dose: 12.0 mg/kg/injection, schedule: Q04DX003 (ip), vehicle: saline",240 % of control
same,T/C,"endpoint: mean survival time, dose: 16.0 mg/kg/injection, schedule: Q01DX001 (ip), vehicle: DMSO",221 % of control
same,T/C,"endpoint: mean survival time, dose: 16.0 mg/kg/injection, schedule: Q01DX001 (ip), vehicle: Klucel (hydroxypropylcellulose) (HPC)",189 % of control
same,T/C,"endpoint: mean survival time, dose: 16.0 mg/kg/injection, schedule: Q01DX001 (ip), vehicle: saline with Tween-80",265 % of control
same,T/C,"endpoint: mean survival time, dose: 16.0 mg/kg/injection, schedule: Q## X016 (oral), vehicle: saline",164 % of control
same,T/C,"endpoint: mean survival time, dose: 20.0 mg/kg/injection, schedule: Q01DX001 (ip), vehicle: saline",303 % of control and 427 % of control
same,T/C,"endpoint: mean survival time, dose: 32.0 mg/kg/injection, schedule: Q01DX001 (ip), vehicle: Klucel (hydroxypropylcellulose) (HPC)",115 % of control
same,T/C,"endpoint: mean survival time, dose: 32.0 mg/kg/injection, schedule: Q01DX001 (ip), vehicle: other",217 % of control
same,T/C,"endpoint: mean survival time, dose: 32.0 mg/kg/injection, schedule: Q01DX001 (ip), vehicle: saline with Tween-80",183 % of control
same,T/C,"endpoint: median survival time, dose: 1.0 mg/kg/injection, schedule: Q01DX009 (ip), vehicle: saline",151 % of control
same,T/C,"endpoint: median survival time, dose: 1.25 mg/kg/injection, schedule: Q01DX009 (ip), vehicle: saline",170 % of control
same,T/C,"endpoint: median survival time, dose: 1.5 mg/kg/injection, schedule: Q04DX003 (ip), vehicle: Klucel (hydroxypropylcellulose) (HPC)",191 % of control
same,T/C,"endpoint: median survival time, dose: 2.0 mg/kg/injection, schedule: Q01DX005 (ip), vehicle: saline",152 % of control
same,T/C,"endpoint: median survival time, dose: 2.0 mg/kg/injection, schedule: Q01DX009 (ip), vehicle: saline",176 % of control
same,T/C,"endpoint: median survival time, dose: 2.5 mg/kg/injection, schedule: Q01DX001 (ip), vehicle: Klucel (hydroxypropylcellulose) (HPC)",150 % of control and 195 % of control
same,T/C,"endpoint: median survival time, dose: 2.5 mg/kg/injection, schedule: Q01DX009 (ip), vehicle: saline",205 % of control
same,T/C,"endpoint: median survival time, dose: 3.0 mg/kg/injection, schedule: Q04DX003 (ip), vehicle: Klucel (hydroxypropylcellulose) (HPC)",182 % of control
same,T/C,"endpoint: median survival time, dose: 3.75 mg/kg/injection, schedule: Q01DX009 (ip), vehicle: saline",158 % of control
same,T/C,"endpoint: median survival time, dose: 4.0 mg/kg/injection, schedule: Q01DX005 (ip), vehicle: saline",176 % of control
same,T/C,"endpoint: median survival time, dose: 4.0 mg/kg/injection, schedule: Q01DX009 (ip), vehicle: saline",227 % of control
same,T/C,"endpoint: median survival time, dose: 5.0 mg/kg/injection, schedule: Q01DX009 (ip), vehicle: saline",357 % of control
same,T/C,"endpoint: median survival time, dose: 8.0 mg/kg/injection, schedule: Q01DX005 (ip), vehicle: saline",211 % of control
same,T/C,"endpoint: median survival time, dose: 8.0 mg/kg/injection, schedule: Q01DX009 (ip), vehicle: saline",234 % of control
same,T/C,"endpoint: median survival time, dose: 10.0 mg/kg/injection, schedule: Q01DX001 (ip), vehicle: Klucel (hydroxypropylcellulose) (HPC)",118 % of control
same,T/C,"endpoint: median survival time, dose: 12.0 mg/kg/injection, schedule: Q01DX001 (ip), vehicle: saline",183 % of control and 193 % of control
same,T/C,"endpoint: median survival time, dose: 15.0 mg/kg/injection, schedule: Q01DX009 (ip), vehicle: saline",114 % of control and 105 % of control
O=C(Cc1ccc([N+](=O)[O-])cc1)Nc1ccc(S(=O)(=O)F)cc1,T/C,"endpoint: mean survival time, dose: 100.0 mg/kg/injection, schedule: Q01DX001 (ip), vehicle: saline",96 % of control
same,T/C,"endpoint: mean survival time, dose: 200.0 mg/kg/injection, schedule: Q01DX001 (ip), vehicle: saline",103 % of control
same,T/C,"endpoint: mean survival time, dose: 400.0 mg/kg/injection, schedule: Q01DX001 (ip), vehicle: saline",100 % of control
Nc1ccc2ccc(N)cc2c1,T/C,"endpoint: median survival time, dose: 25.0 mg/kg/injection, schedule: Q01DX009 (ip), vehicle: saline with Tween-80",98 % of control
same,T/C,"endpoint: median survival time, dose: 50.0 mg/kg/injection, schedule: Q01DX009 (ip), vehicle: saline with Tween-80",100 % of control
same,T/C,"endpoint: median survival time, dose: 100.0 mg/kg/injection, schedule: Q01DX009 (ip), vehicle: saline with Tween-80",100 % of control
same,T/C,"endpoint: median survival time, dose: 200.0 mg/kg/injection, schedule: Q01DX009 (ip), vehicle: saline with Tween-80",105 % of control
CC(Br)C(=O)OCc1ccccc1 (stereo unspecified),T/C,"endpoint: mean survival time, dose: 100.0 mg/kg/injection, schedule: Q04DX003 (ip), vehicle: saline with Tween-80",95 % of control
same,T/C,"endpoint: mean survival time, dose: 200.0 mg/kg/injection, schedule: Q04DX003 (ip), vehicle: saline with Tween-80",95 % of control
same,T/C,"endpoint: mean survival time, dose: 400.0 mg/kg/injection, schedule: Q04DX003 (ip), vehicle: saline with Tween-80",95 % of control
COc1cc(-c2nc(-c3ccc(N=Cc4ccc(N(CCCOS(C)(=O)=O)CCCOS(C)(=O)=O)cc4)cc3)cs2)ccc1OCc1ccccc1,T/C,"endpoint: mean survival time, dose: 100.0 mg/kg/injection, schedule: Q01DX001 (ip), vehicle: saline with Tween-80",91 % of control
same,T/C,"endpoint: mean survival time, dose: 200.0 mg/kg/injection, schedule: Q01DX001 (ip), vehicle: saline with Tween-80",95 % of control
same,T/C,"endpoint: mean survival time, dose: 200.0 mg/kg/injection, schedule: Q01DX009 (ip), vehicle: saline with Tween-80",86 % of control
same,T/C,"endpoint: mean survival time, dose: 400.0 mg/kg/injection, schedule: Q01DX001 (ip), vehicle: saline with Tween-80",89 % of control
CC([NH-])CC(C)[NH-].O=[N+]([O-])O.O=[N+]([O-])O.[Pt+2] (stereo unspecified),T/C,"endpoint: mean survival time, dose: 6.25 mg/kg/injection, schedule: Q04DX003 (ip), vehicle: saline",154 % of control
same,T/C,"endpoint: mean survival time, dose: 12.5 mg/kg/injection, schedule: Q04DX003 (ip), vehicle: saline",247 % of control
same,T/C,"endpoint: mean survival time, dose: 25.0 mg/kg/injection, schedule: Q04DX003 (ip), vehicle: saline",207 % of control
